From patent US10253006B2, “Assay for the detection of the phenylpiperazine family” (RANDOX LABORATORIES LIMITED, priority 2012, dated 2019)
Like-named read-outs stand apart in the source and are kept apart here.

Experiments:
Type in all cases: binding, sheep
[1] = tested on: antibody 1 raised against Immunogen IV; assay: Biochip competitive immunoassay, antibody 1
Method: (§1) A semi-automated Evidence Investigator analyser (Randox Laboratories Ltd., Crumlin, UK) was used as the platform for a biochip assay for the detection of phenylpiperazines.
(§2) Immunogens were administered to 16-month old Suffolk sheep on a monthly basis to provide target specific polyclonal antisera. The immunisation mixture was prepared by adding 2 mg of immunogen prepared in PBS at a ratio of 50% Immunogen/PBS with 50% Freund's Complete adjuvant (Sigma, Product Number—F5881) and emulsifying the mixture to prepare the final product for immunisation. On day 0, 1 ml of the mixture described above was administered intramuscularly to adult sheep. Subsequent boosts (a total of 20 boosts) were administered intramuscularly to each sheep every 30 days. Freund's complete adjuvant (Sigma, Product Number—F5881) was used for primary immunizations and Freund's incomplete adjuvant (Sigma product Number—F5506) was used for all subsequent injections. Routine bleeds were taken between boosts to monitor the antibody titre and sensitivity, using hapten B conjugated to Horseradish peroxidase in a competitive ELISA, testing cross reactivity to 1-(3-Chlorophenyl)piperazine. In the case of the combination immunoassay, immunogens II and IV were administered to separate sheep and the resulting antisera were combined in a 1:1 ratio to form the antibody blend (1 ml of antisera from the sheep administered with Immunogen II was combined with 1 ml of antisera from the sheep administered with Immunogen IV). IgG was extracted from antisera and purified as described above, and the purified antibodies were immobilised on a biochip (9 mm×9 mm) (Randox Laboratories Ltd). The assay was based on competition for binding sites of a polyclonal antibody between Hapten B-HRP conjugate (Example 9) and phenylpiperazines and potential cross-reactants. The antibodies were immobilised and stabilised onto the biochip surface as previously described (Fitzgerald et al., 2005). Assay dilutent (155 μL), calibrator/phenylpiperazine or potential cross-reactant (25 μL) followed by Hapten-B conjugate (120 μL) were added to the appropriate biochip. The biochips were then incubated for 30 minutes at 30° C. on a thermoshaker set at 370 rpm. The biochips were then subjected to 2 quick wash cycles using the wash buffer provided, followed by 4×2 minute wash cycles. 250 μL of signal (1:1 luminol+peroxide, v/v) was then added to each biochip, and after 2 minutes the biochip carrier was imaged in the Evidence Investigator analyser.
(§3) Calibration curves were generated using the Biochip-based immunoassay. IC50 values were calculated from the graphs by taking 50% of the signal from the zero calibrator and reading the corresponding value on the x-axis, equivalent to the concentration of unlabelled ligand which reduces specific binding of labelled ligand by 50%. Specificity (measured as percentage cross-reactivity−[IC50 (analyte)/IC50 (cross-reactant)]×100) was also tested against a range of piperazine derivatives and other compounds sharing structural features (see table 1).

[2] = tested on: Combination of antibodies 1 & 2 (antisera combined in a 1:1 ratio)
Method: as §1, §2, §3

[3] = tested on: antibody 2 raised against Immunogen II
Method: as §1, §2, §3

[4] = Antibody 1, Hapten B-HRP conjugate
[5] = Antibody 1, standardized to 1-(3-chlorophenyl)piperazine monohydrochloride, Hapten B-HRP conjugate
[6] = Combination of antibodies 1 & 2, Hapten B-HRP conjugate
[7] = Combination of antibodies 1 & 2, standardized to 1-(3-chlorophenyl)piperazine monohydrochloride, Hapten B-HRP conjugate
[8] = Antibody 2, Hapten B-HRP conjugate
[9] = Antibody 2, standardized to 1-(3-chlorophenyl)piperazine monohydrochloride, Hapten B-HRP conjugate

Compound | IC50 [1, 4] [ng/mL] | Cross-reactivity (%) [1, 5] [%] | IC50 [2, 6] [ng/mL] | Cross-reactivity (%) [2, 7] [%] | IC50 [3, 8] [ng/mL] | Cross-reactivity (%) [3, 9] [%] | Cross-reactivity (%) [1] [%] | IC50 [1] [ng/mL] | Cross-reactivity (%) [2] [%] | IC50 [2] [ng/mL] | Cross-reactivity (%) [3] [%] | IC50 [3] [ng/mL]
Fc1ccc(N2CCNCC2)cc1 [1-(4-Fluorophenyl)piperazine] | 1.085 | 54 | 5.113 | 51 | 7.646 | 38 |  |  |  |  |  | 
CN1CCNC(c2ccccc2)C1 (centres unmarked) [1-Methyl-3-phenylpiperazine] |  | <1 |  | <1 |  | <1 |  |  |  |  |  | 
Cc1cccc(N2CCNCC2)c1 [1-(3-Methylphenyl)piperazine (mMPP), 1-(3-Methylphenyl)piperazine] | 0.840 | 129 | 1.418 | 191 | 1.697 | 230 |  |  |  |  |  | 
Nc1cccc(C(F)(F)F)c1O [3-Amino-2-hydroxybenzotrifluoride] |  | <1 |  | <1 |  | <1 |  |  |  |  |  | 
CCC(C(=O)c1ccc2c(c1)OCO2)N1CCCC1 (centres unmarked) [MDPBP] |  | <1 |  | <1 |  | <1 |  |  |  |  |  | 
Oc1ccc(N2CCNCC2)cc1 [1-(4-hydroxyphenyl)piperazine] | 1.029 | 57 | 15.032 | 18 | 28.195 | 10 |  |  |  |  |  | 
Oc1cccc(N2CCNCC2)c1 [1-(3-hydroxyphenyl)piperazine] |  |  |  |  |  |  | 31 | 3.469 | 95 | 2.848 | 156 | 2.504
COc1cc(CCN)cc(OC)c1OC [Mescaline] |  | <1 |  | <1 |  | <1 |  |  |  |  |  | 
Clc1cccc(N2CCNCC2)c1 [1-(3-Chlorophenyl)piperazine (mCPP), 1-(3-chlorophenyl)piperazine] | 0.907 | 100 | 2.075 | 100 | 2.554 | 100 |  |  |  |  |  | 
COC(=O)[C@@H]1C[C@H](OC(C)=O)C(=O)[C@H]2[C@@]1(C)CC[C@H]1C(=O)O[C@H](c3ccoc3)C[C@]21C [Salvinorin A] |  | <1 |  | <1 |  | <1 |  |  |  |  |  | 
O=c1n(CCCN2CCN(c3cccc(Cl)c3)CC2)nc2ccccn12 [Trazadone] |  | <1 |  |  |  | <1 |  |  | <1 |  |  | 
COc1ccccc1N1CCNCC1 [1-(2-Methoxyphenyl)piperazine] | 335.160 | <1 | 15.553 | 17 | 8.770 | 34 |  |  |  |  |  | 
CNC(C)C(=O)c1ccc(C)cc1 (centres unmarked) [Mephedrone] |  | <1 |  | <1 |  | <1 |  |  |  |  |  | 
c1ccc(N2CCNCC2)cc1 [1-phenylpiperazine] | 1.017 | 106 | 2.163 | 125 | 2.795 | 140 |  |  |  |  |  | 
CCCCCn1cc(C(=O)Cc2ccccc2OC)c2ccccc21 [JWH-250] |  | <1 |  | <1 |  | <1 |  |  |  |  |  | 
COc1ccc(N2CCNCC2)cc1 [1-(4-Methoxyphenyl)piperazine (pMeOPP), 1-(4-methoxyphenyl)piperazine] | 0.868 | 68 | 10.226 | 26 | 19.771 | 20 |  |  |  |  |  | 
c1ccc(CN2CCNCC2)cc1 [1-benzylpiperazine (BZP), 1-benzylpiperazine] | 232.706 | <1 |  | <1 |  | <1 |  |  |  |  |  | 
CCCCCn1cc(C(=O)c2cccc3ccccc23)c2ccccc21 [JWH-018] |  | <1 |  | <1 |  | <1 |  |  |  |  |  | 
FC(F)(F)c1cccc(N2CCNCC2)c1 [1-(3-Trifluoromethylphenyl)piperazine] | 7.620 | 13 | 5.958 | 44 | 4.831 | 61 |  |  |  |  |  | 
C1CNCCN1 [Piperazine] |  |  |  |  |  |  | <1 |  | <1 |  | <1 | 
(+)-Pseudoephedrine |  | <1 |  | <1 |  | <1 |  |  |  |  |  | 
OC1(c2ccc(Cl)cc2)CCNCC1 [4-(4-Chlorophenyl)-4-Hydroxypiperidine] | 218.980 | <1 |  | <1 |  | <1 |  |  |  |  |  | 
